US20110039721A1, “METHOD FOR PREDICTION ABOUT CARCINOGENICITY OF SUBSTANCE IN RODENT” (Chemicals Evaluation and Research Institute, priority 2007, published 2011)

Tests used:
liver = settings: in vivo; cited from earlier work
rodent = settings: in vivo; cited from earlier work
[1] = test system: mRNA expressed from the genes (A) to (D) in rat liver; assay: Behavior of genes (mRNA expression level, oligo-DNA microarray) in rat liver after 28-day oral administration; format: in vivo; settings: mRNA vs vehicle control group
Outline: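 Liver mRNA measured by oligo-DNA microarray after 28 days of once-daily oral gavage in 5-week-old male F344 rats (n=4 per group), with vehicle controls given equal solvent volume. Significance threshold: 1.5-fold up or down versus control, with changes opposite in direction to other carcinogens counted as not significant.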

[2] = gene group (A), Unigene No. Rn.167075
[3] = gene group (C), Unigene No. Rn.120914

CCCCC(CC)COC(=O)c1ccccc1C(=O)OCC(CC)CCCC (centres unmarked) [TS002, Di(2-ethylhexyl)phthalate]
+: Behavior of gene caused by administration of chemical substance, Gene No. 2026 [1, 2] | Behavior of gene caused by administration of chemical substance, Gene No. 1494 ([1]; gene group (B), Unigene No. Rn.1430) | Behavior of gene caused by administration of chemical substance, Gene No. 2045 ([1]; gene group (B), Unigene No. Rn.19329) | Behavior of gene caused by administration of chemical substance, Gene No. 2203 ([1]; gene group (B), Unigene No. Rn.21240) | Behavior of gene caused by administration of chemical substance, Gene No. 533 ([1]; gene group (C), Unigene No. Rn.106184) | Behavior of gene caused by administration of chemical substance, Gene No. 725 ([1]; gene group (C), Unigene No. Rn.108075) | Behavior of gene caused by administration of chemical substance, Gene No. 4973 ([1]; gene group (C), Unigene No. Rn.118529) | Behavior of gene caused by administration of chemical substance, Gene No. 4095 ([1]; gene group (C), Unigene No. Rn.119024) | Behavior of gene caused by administration of chemical substance, Gene No. 1131 ([1]; gene group (C), Unigene No. Rn.144946) | Behavior of gene caused by administration of chemical substance, Gene No. 813 ([1]; gene group (C), Unigene No. Rn.201760) | Behavior of gene caused by administration of chemical substance, Gene No. 6742 ([1]; gene group (C), Unigene No. Rn.9779)
Cr+: Liver carcinogenicity (liver)
−: Behavior of gene caused by administration of chemical substance, Gene No. 4846 ([1]; gene group (A), Unigene No. Rn.144554) | Behavior of gene caused by administration of chemical substance, Gene No. 4218 [1, 2] | Behavior of gene caused by administration of chemical substance, Gene No. 6182 ([1]; gene group (A), Unigene No. Rn.5834) | Behavior of gene caused by administration of chemical substance, Gene No. 5600 ([1]; gene group (A), Unigene No. Rn.9836) | Behavior of gene caused by administration of chemical substance, Gene No. 1163 ([1]; gene group (C), Unigene No. Rn.11766) | Behavior of gene caused by administration of chemical substance, Gene No. 1334 [1, 3] | Behavior of gene caused by administration of chemical substance, Gene No. 6620 [1, 3] | Behavior of gene caused by administration of chemical substance, Gene No. 6303 ([1]; gene group (C), Unigene No. Rn.123063) | Behavior of gene caused by administration of chemical substance, Gene No. 5878 ([1]; gene group (C), Unigene No. Rn.143213) | Behavior of gene caused by administration of chemical substance, Gene No. 1562 ([1]; gene group (C), Unigene No. Rn.14744) | Behavior of gene caused by administration of chemical substance, Gene No. 1741 ([1]; gene group (C), Unigene No. Rn.1647) | Behavior of gene caused by administration of chemical substance, Gene No. 893 ([1]; gene group (C), Unigene No. Rn.164817) | Behavior of gene caused by administration of chemical substance, Gene No. 6026 ([1]; gene group (C), Unigene No. Rn.167685) | Behavior of gene caused by administration of chemical substance, Gene No. 154 ([1]; gene group (C), Unigene No. Rn.185941) | Behavior of gene caused by administration of chemical substance, Gene No. 1993 ([1]; gene group (C), Unigene No. Rn.18728) | Behavior of gene caused by administration of chemical substance, Gene No. 2494 ([1]; gene group (C), Unigene No. Rn.23969) | Behavior of gene caused by administration of chemical substance, Gene No. 2546 ([1]; gene group (C), Unigene No. Rn.24561) | Behavior of gene caused by administration of chemical substance, Gene No. 3776 ([1]; gene group (C), Unigene No. Rn.43232) | Behavior of gene caused by administration of chemical substance, Gene No. 3929 ([1]; gene group (C), Unigene No. Rn.4620) | Behavior of gene caused by administration of chemical substance, Gene No. 1119 ([1]; gene group (C), Unigene No. Rn.9757) | Behavior of gene caused by administration of chemical substance, Gene No. 5634 ([1]; gene group (C), Unigene No. Rn.9862) | Behavior of gene caused by administration of chemical substance, Gene No. 5726 ([1]; gene group (D), Unigene No. Rn.9939)
C+: Carcinogenicity (rodent)
